From USRE48335E1, “Polymyxin derivatives as antimicrobial compounds” (priority 2014, dated 2020)
In brackets after ≈: the same amount, converted by molar mass. Where two headings read alike, the source gives them in different places. Positions of bridges follow the written chain, without caps; N, C: chain ends. Non-standard residues stand in square brackets, D forms with d. Residues, ends and D or L forms follow the SMILES beside them. *: point of attachment. Benzoyl(4-Ph) = O=C(c1ccc(-c2ccccc2)cc1)*; Lauroyl = CCCCCCCCCCCC(=O)*; Decanoyl = CCCCCCCCCC(=O)*; Heptanoyl = CCCCCCC(=O)*; Octanoyl = CCCCCCCC(=O)*; Orn = NCCC[C@H](N)C(=O)O; Dab = NCC[C@H](N)C(=O)O; Dap = NC[C@H](N)C(=O)O; PhAc = O=C(Cc1ccccc1)*

Legend:
[1] = tested on: Acinetobacter baumannii
Protocol: (§1) MICs of the lipopeptides (trifluoroacetic acid salt, TFA) were determined by broth microdilution in cation-adjusted Mueller-Hinton broth (CAMHB) (Oxoid Australia, Thebarton, SA, Australia) according to Clinical and Laboratory Standards Institute standards (Clinical and Laboratory Standards Institute. Performance standards for antimicrobial susceptibility testing; eighteenth informational supplement M100-S18. Wayne, Pa., 2008). Polymyxin B (sulphate) was employed as control. […]

[2] = tested on: Enterobacter cloacae
Protocol: as §1

[3] = tested on: Pseudomonas aeruginosa
Protocol: as §1

Row | Compound | Minimum inhibitory concentration, Ab A ATCC 17978 [1] [µg/mL] | Minimum inhibitory concentration, Ab ATCC 19606 [1] [µg/mL] | Minimum inhibitory concentration, Ab FADDI-AB034 [1] [µg/mL] | Minimum inhibitory concentration, Ec FADDI-EC001 [2] [µg/mL] | Minimum inhibitory concentration, Ec FADDI-EC003 [2] [µg/mL] | Minimum inhibitory concentration, Ec FADDI-EC006 [2] [µg/mL] | Minimum inhibitory concentration, Pa ATCC 27853 [3] [µg/mL] | Minimum inhibitory concentration, Pa FADDI-PA022 [3] [µg/mL] | Minimum inhibitory concentration, Pa FADDI-PA025 [3] [µg/mL] | Minimum inhibitory concentration, Ab A ATCC 17978 ([1]; Acinetobacter baumannii ATCC 17978, broth microdilution in CAMHB) [µg/mL] | Minimum inhibitory concentration, Ab ATCC 19606 ([1]; Acinetobacter baumannii ATCC 19606, broth microdilution in CAMHB) [µg/mL] | Minimum inhibitory concentration, Ab FADDI-AB034 ([1]; Acinetobacter baumannii FADDI-AB034, broth microdilution in CAMHB) [µg/mL] | Minimum inhibitory concentration, Ec FADDI-EC001 ([2]; Enterobacter cloacae FADDI-EC001, broth microdilution in CAMHB) [µg/mL] | Minimum inhibitory concentration, Ec FADDI-EC003 ([2]; Enterobacter cloacae FADDI-EC003, broth microdilution in CAMHB) [µg/mL] | Minimum inhibitory concentration, Ec FADDI-EC006 ([2]; Enterobacter cloacae FADDI-EC006, broth microdilution in CAMHB) [µg/mL] | Minimum inhibitory concentration, Pa ATCC 27853 ([3]; Pseudomonas aeruginosa ATCC 27853, broth microdilution in CAMHB) [µg/mL] | Minimum inhibitory concentration, Pa FADDI-PA022 ([3]; Pseudomonas aeruginosa FADDI-PA022, broth microdilution in CAMHB) [µg/mL] | Minimum inhibitory concentration, Pa FADDI-PA025 ([3]; Pseudomonas aeruginosa FADDI-PA025, broth microdilution in CAMHB) [µg/mL]
1 | CCCCCCCCCC(=O)N[C@@H](CCN)C(=O)N[C@H](C(=O)N[C@H](CO)C(=O)N[C@H]1CCNC(=O)[C@H]([C@@H](C)O)NC(=O)[C@H](CCN)NC(=O)[C@H](CCN)NC(=O)[C@H]([C@@H](C)O)NC(=O)[C@@H](CC(C)C)NC(=O)[C@H](CCN)NC1=O)[C@@H](C)O [Compound 9] (Decanoyl-[Dab]T[dS][Dab][Dab][dL]T[Dab][Dab]T; lactam 4-C) | 1 (≈ 0.863 µM) | 0.25 (≈ 0.216 µM) | 0.5 (≈ 0.432 µM) | 0.5 (≈ 0.432 µM) | 1 (≈ 0.863 µM) | 1 (≈ 0.863 µM) | 4 (≈ 3.45 µM) | 8 (≈ 6.91 µM) | 32 (≈ 27.6 µM) |  |  |  |  |  |  |  |  | 
2 | CCCCCCCCCCCC(=O)N[C@@H](CCN)C(=O)N[C@H](C(=O)N[C@H](CO)C(=O)N[C@H]1CCNC(=O)[C@H]([C@@H](C)O)NC(=O)[C@H](CCN)NC(=O)[C@H](CCN)NC(=O)[C@H]([C@@H](C)O)NC(=O)[C@@H](CC(C)C)NC(=O)[C@H](CCN)NC1=O)[C@@H](C)O [Compound 10] (Lauroyl-[Dab]T[dS][Dab][Dab][dL]T[Dab][Dab]T; lactam 4-C) | 0.5 (≈ 0.421 µM) | 1 (≈ 0.843 µM) | 1 (≈ 0.843 µM) | 1 (≈ 0.843 µM) | 0.5 (≈ 0.421 µM) | 1 (≈ 0.843 µM) | 2 (≈ 1.69 µM) | 4 (≈ 3.37 µM) | 4 (≈ 3.37 µM) |  |  |  |  |  |  |  |  | 
3 | CC(C)C[C@H]1NC(=O)[C@H](CCN)NC(=O)[C@@H](NC(=O)[C@@H](CO)NC(=O)[C@@H](NC(=O)[C@H](CCN)NC(=O)c2ccc(-c3ccccc3)cc2)[C@@H](C)O)CCNC(=O)[C@H]([C@@H](C)O)NC(=O)[C@H](CCN)NC(=O)[C@H](CCN)NC(=O)[C@H]([C@@H](C)O)NC1=O [Compound 11] ({Benzoyl(4-Ph)}-[Dab]T[dS][Dab][Dab][dL]T[Dab][Dab]T; lactam 4-C) | 0.5 (≈ 0.422 µM) | 2 (≈ 1.69 µM) | 1 (≈ 0.844 µM) | 0.5 (≈ 0.422 µM) | 0.5 (≈ 0.422 µM) | 0.5 (≈ 0.422 µM) | 4 (≈ 3.38 µM) | 4 (≈ 3.38 µM) | 32 (≈ 27 µM) |  |  |  |  |  |  |  |  | 
4 | CC(C)C[C@H]1NC(=O)[C@H](CCN)NC(=O)[C@@H](NC(=O)[C@@H](CO)NC(=O)[C@@H](NC(=O)[C@H](CCN)NC(=O)Cc2ccccc2)[C@@H](C)O)CCNC(=O)[C@H]([C@@H](C)O)NC(=O)[C@H](CCN)NC(=O)[C@H](CCN)NC(=O)[C@H]([C@@H](C)O)NC1=O [Compound 12] (PhAc-[Dab]T[dS][Dab][Dab][dL]T[Dab][Dab]T; lactam 4-C) |  |  |  |  |  |  |  |  |  | 4 (≈ 3.56 µM) | 4 (≈ 3.56 µM) | 4 (≈ 3.56 µM) | 0.25 (≈ 0.223 µM) | 0.5 (≈ 0.446 µM) | 1 (≈ 0.891 µM) | >32 | 8 (≈ 7.13 µM) | >32
5 | CCCCCCCC(=O)N[C@@H](CN)C(=O)N[C@H](C(=O)N[C@H](CO)C(=O)N[C@H]1CCNC(=O)[C@H]([C@@H](C)O)NC(=O)[C@H](CCN)NC(=O)[C@H](CCN)NC(=O)[C@H]([C@@H](C)O)NC(=O)[C@@H](CC(C)C)NC(=O)[C@H](CCN)NC1=O)[C@@H](C)O [Compound 13] (Octanoyl-[Dap]T[dS][Dab][Dab][dL]T[Dab][Dab]T; lactam 4-C) | 1 (≈ 0.896 µM) | 1 (≈ 0.896 µM) | 0.5 (≈ 0.448 µM) | 0.25 (≈ 0.224 µM) | 0.25 (≈ 0.224 µM) | 0.5 (≈ 0.448 µM) | 4 (≈ 3.58 µM) | 4 (≈ 3.58 µM) | >32 |  |  |  |  |  |  |  |  | 
6 | CCCCCCCC(=O)N[C@@H](CCCN)C(=O)N[C@H](C(=O)N[C@H](CO)C(=O)N[C@H]1CCNC(=O)[C@H]([C@@H](C)O)NC(=O)[C@H](CCN)NC(=O)[C@H](CCN)NC(=O)[C@H]([C@@H](C)O)NC(=O)[C@@H](CC(C)C)NC(=O)[C@H](CCN)NC1=O)[C@@H](C)O [Compound 14] (Octanoyl-[Orn]T[dS][Dab][Dab][dL]T[Dab][Dab]T; lactam 4-C) | 8 (≈ 6.99 µM) | 16 (≈ 14 µM) | 4 (≈ 3.5 µM) | 0.25 (≈ 0.218 µM) | 0.5 (≈ 0.437 µM) | 4 (≈ 3.5 µM) | >32 | 8 (≈ 6.99 µM) | >32 |  |  |  |  |  |  |  |  | 
7 | CCCCCCCC(=O)N[C@@H](CCN)C(=O)N[C@H](C(=O)N[C@@H](C(=O)N[C@H]1CCNC(=O)[C@H]([C@@H](C)O)NC(=O)[C@H](CCN)NC(=O)[C@H](CCN)NC(=O)[C@H]([C@@H](C)O)NC(=O)[C@@H](CC(C)C)NC(=O)[C@H](CCN)NC1=O)[C@H](C)O)[C@@H](C)O [Compound 15] (Octanoyl-[Dab]T[dT][Dab][Dab][dL]T[Dab][Dab]T; lactam 4-C) | 0.5 (≈ 0.437 µM) | 2 (≈ 1.75 µM) | 1 (≈ 0.874 µM) | 1 (≈ 0.874 µM) | 2 (≈ 1.75 µM) | 1 (≈ 0.874 µM) | 16 (≈ 14 µM) | 16 (≈ 14 µM) | >32 |  |  |  |  |  |  |  |  | 
8 | CCCCCCC(=O)N[C@@H](CCN)C(=O)N[C@H](C(=O)N[C@H](CO)C(=O)N[C@H]1CCNC(=O)[C@H]([C@@H](C)O)NC(=O)[C@H](CCN)NC(=O)[C@H](CCN)NC(=O)[C@H]([C@@H](C)O)NC(=O)[C@@H](CC(C)C)NC(=O)[C@H](CCN)NC1=O)[C@@H](C)O [Compound 16] (Heptanoyl-[Dab]T[dS][Dab][Dab][dL]T[Dab][Dab]T; lactam 4-C) | 0.5 (≈ 0.448 µM) | 2 (≈ 1.79 µM) | 2 (≈ 1.79 µM) | 0.5 (≈ 0.448 µM) | 0.25 (≈ 0.224 µM) | 0.25 (≈ 0.224 µM) | 4 (≈ 3.58 µM) | 4 (≈ 3.58 µM) | >32 |  |  |  |  |  |  |  |  | 
